From article PMC8025548 (Carbohydrate Polymers, 2021)
In brackets after ≈: the same amount, converted by molar mass. Read-outs that look alike come from different tables or passages of the source.

Experiments:
[1] = ref Larson, 2019, cited from earlier work
[2] = SBECD-assisted equilibrium solubilization of REM, assayed by HPLC; assay type: physicochemical; settings: for solubility at 24 h: pH 1.9

SMILES: CCC(CC)COC(=O)[C@H](C)N[P@](=O)(OC[C@H]1O[C@@](C#N)(c2ccc3c(N)ncnn23)[C@H](O)[C@@H]1O)Oc1ccccc1 [REM, Remdesivir]
- dissolved REM ([1]; 20 % (w/w) aqueous solution of PEG-400): 3.3 mg/mL
- dissolved REM ([1]; 20 % (w/w) aqueous solution of SBECD): 8.5 mg/mL
- dissolved REM ([1]; 20 % (w/w) aqueous solution of Tween-80): 3.9 mg/mL
- solubility at 24 h ([2]; 20 % (w/w) aqueous SBECD solution): 7600 to 9700 µg/mL (≈ 12.6 to 16.1 mM)
- solubility at 24 h ([2]; 20 % aqueous SBECD solution): 8400 µg/mL (≈ 13.9 mM)
- improvement of the aqueous solubility of REM ([2]; with solubilizing carbohydrate (SBECD)): 300 fold
